What all share (assay type): cell-based, human
One series relates to bcl-xs mRNA. Description: RNase protection assay, bcl-xs mRNA in A549 cells. Also on record: concentration or dose not given beside the values. The following applies: RPA. From the text:
(§1) The ribonuclease (RNase) protection assay is a sensitive and specific method for quantitating expression levels (Zinn, et al., Cell, 1983, 34:865–79). The method is based on the hybridization of a target RNA to an in vitro transcribed ^32P-labeled anti-sense RNA probe from a DNA template. RNase treatment follows, resulting in degradation of single-stranded RNA and excess probe. The probe and target RNA are resolved by denaturing polyacrylamide gel electrophoresis with the “protected” probe visualized using autoradiography or beta imaging equipment. Template sets can be purchased (PharMingen Inc., San Diego Calif.) which contain a series of biologically relevant templates, each of distinct length and each representing a sequence in a distinct mRNA species. Each template set is capable of detecting up to 11 unique gene messages in a single reaction mix in addition to one or more housekeeping genes, L32 and GAPDH, which serve as internal controls. These template sets allow for multiple determinations to be made from a single sample. Multi-probe RPA can be performed on total RNA preparations derived by standard methods, without further purification of poly-A+ RNA.
(§2) Oligonucleotides were evaluated for their respective effects on bcl-xs and bcl-xl mRNA levels along with total bcl-x mRNA levels, using the RIBOQUANT™ RNase protection kit (Pharmingen, San Diego Calif.). All assays were performed according to manufacturer's protocols. Briefly, multi-probe DNA template sets were used to generate antisense RNA transcripts radiolabeled with […]. The template set used for apoptosis genes was the human hAPO-2 set. These radiolabeled probes were hybridized overnight with typically 10 μg of total cellular RNA. The reaction mixture was then digested with single-strand RNases to generate the protected fragments which were electrophoresed through a 5% acrylamide/urea gel. Protected bands were visualized and quantitated using a PhosphorImager (Molecular Dynamics, Sunnyvale Calif.).
(§3) Human bcl-x has two forms, a long form known as bcl-xl and a short form known as bcl-xs. […] The protein of bcl-xl is similar in size and structure to bcl-2, and could inhibit cell death upon growth factor withdrawal. The protein of bcl-xs is 63 amino acids shorter than bcl-xl. It could inhibit the bcl-2 function, thus promoting programmed cell death (apoptosis). Oligonucleotides were evaluated for their respective effects on bcl-xs and bcl-xl mRNA levels along with total bcl-x mRNA levels, using the RIBOQUANT™ RNase protection kit (Pharmingen, San Diego Calif.). All assays were performed according to manufacturer's protocols.

Another series deals with bcl-xl mRNA. Kind of series: RNase protection assay, bcl-xl mRNA in A549 cells. The conditions noted are these: RPA.
Excerpt: as §1, §2, §3
(§4) These oligonucleotides were tested for their inhibitory effects on bcl-xl and bcl-xs mRNA levels in A549 cells, as detected by RPA analysis. Oligonucleotide concentration was 200 nM.

In the next series the test system is total bcl-x mRNA. Description: RNase protection assay, total bcl-x mRNA in A549 cells. Also on record: % CONTROL total bcl-x: concentration or dose not given beside the values. The following applies: RPA.
Excerpt: as §1, §2, §3

The subject of a further series is bcl-xs/bcl-xl mRNA ratio. Kind of series: RNase protection assay, bcl-xs/bcl-xl mRNA ratio in A549 cells. The conditions noted are these: A549 cells, RPA; for bcl-xs/bcl-xl (%): no oligo 17.56; for bcl-xs/bcl-xl* (change from the control ratio 17.56) / bcl-xs/bcl-xl Fold difference: no oligo = 1; for bcl-xs/bcl-xl Fold difference: 200 nM.
Excerpt: as §1, §2, §3, §4

Series [1] relates to bcl-xs/bcl-xl transcript ratio. Kind of series: PNA analogs, bcl-x splicing in electroporated HeLa cells. The conditions noted are these: electroporation. From the text:
A peptide-nucleic acid (PNA) oligonucleotide having the ISIS 22783 sequence (SEQ ID NO: 33) was synthesized as described in Example 4 hereinabove. The oligonucleotide (ISIS 32262) was uniformly modified with a PNA backbone throughout. A 5-base mismatch compound (ISIS 32263, SEQ ID NO: 52) was also synthesized as a full PNA. HeLa cells were transfected with these compounds by electroporation with a 200V pulse using a BTX Electro Cell Manipulator 600 (Genetronics, San Diego Calif.) and RNA was isolated 24 hours later.

In the oligonucleotide strings, read from the 5' end, every base follows the letter of its sugar. An asterisk marks phosphorothioate; unmarked linkages are phosphodiester. Other units and linkages are bracketed, terminal groups are in braces. A string of capitals states the bases alone. e = 2'-O-(2-methoxyethyl) (MOE); [5mC] = 5-methylcytosine; d = 2'-deoxy (DNA)

For “22785 (antisense eG*e[5mC]*e[5mC]*eG*e[5mC]*e[5mC]*eG*eT*eT*e[5mC]*eT*e[5mC]*e[5mC]*eT*eG*eG*eA*eT*e[5mC]*e[5mC]) [compound 22785]”, the “% CONTROL bcl-xs” value with bcl-xs mRNA was 248%. In addition, in the series with bcl-xl mRNA, the “% CONTROL bcl-xl” value is given as 53%. For the same substance, in the series with total bcl-x mRNA, the “% CONTROL total bcl-x” value is 83%. Also, in the series on bcl-xs/bcl-xl mRNA ratio, the “bcl-xs/bcl-xl (%)” value came out at 80.14% and the “bcl-xs/bcl-xl* (change from the control ratio 17.56)” value stood at 4.56.
The matching figures for “16972 (antisense eT*e[5mC]*eA*e[5mC]*eG*dT*dT*dG*dG*dC*dG*dC*dT*dT*dA*eG*e[5mC]*e[5mC]*eA*eT) [compound 16972]”: 60%, 91%, 87%, 11.68% and 0.67.
“22782 (antisense e[5mC]*eA*eA*eA*eA*eG*eT*eA*eT*e[5mC]*e[5mC]*e[5mC]*eA*eG*e[5mC]*e[5mC]*eG*e[5mC]*e[5mC]*eG) [compound 22782]”: the “% CONTROL bcl-xs” value in the series with bcl-xs mRNA is on record as 64%. Also, the “% CONTROL bcl-xl” value in the series with bcl-xl mRNA amounted to 76%. Also, the “% CONTROL total bcl-x” value with total bcl-x mRNA amounted to 75%. In the series with bcl-xs/bcl-xl mRNA ratio, the “bcl-xs/bcl-xl (%)” value was found to be 15.72% and the “bcl-xs/bcl-xl* (change from the control ratio 17.56)” value is reported as 0.89.
Turning to “ISIS 32262: PNA oligonucleotide having the ISIS 22783 sequence (SEQ ID NO: 33), PNA backbone throughout (CTGGATCCAAGGCTCTAGGT; all peptide nucleic acid (PNA))”, the “Ratio (approx.) of bcl-xs/bcl-xl” value in series [1] (2 μM) is given as around 2.0; in series [1] (5 μM), around 3.5; in series [1] (10 μM), around 6.5; in series [1] (15 μM) it was around 7.75; in series [1] (25 μM), around 11.5; in series [1] (RNA 24 hours later, 1 μM), around 1.5.
In the case of “ISIS 32263: 5-base mismatch compound, SEQ ID NO: 52, full PNA (CTGGTTACACGACTCCAGGT; all peptide nucleic acid (PNA)) [reference compound]”, the “Ratio (approx.) of bcl-xs/bcl-xl” value in series [1] (2 μM) was around 0.75; in series [1] (5 μM), around 0.75; in series [1] (10 μM), around 1.0; in series [1] (15 μM), around 0.75; in series [1] (25 μM), around 1.0; in series [1] (RNA 24 hours later, 1 μM), around 1.5.
Take “23174 (antisense e[5mC]*e[5mC]*eG*eG*e[5mC]*e[5mC]*eA*e[5mC]*eA*eG*eT*e[5mC]*eA*eT*eG*e[5mC]*e[5mC]*e[5mC]*eG*eT) [compound 23174]”: in the series on bcl-xs mRNA, the “% CONTROL bcl-xs” value was 56%. The “% CONTROL bcl-xl” value in the series on bcl-xl mRNA is listed as 67%. For the same substance, the “% CONTROL total bcl-x” value in the series with total bcl-x mRNA is reported as 66%. In the series on bcl-xs/bcl-xl mRNA ratio, the “bcl-xs/bcl-xl (%)” value stood at 14.93% and the “bcl-xs/bcl-xl* (change from the control ratio 17.56)” value came out at 0.85.
For the substance “22783 (antisense e[5mC]*eT*eG*eG*eA*eT*e[5mC]*e[5mC]*eA*eA*eG*eG*e[5mC]*eT*e[5mC]*eT*eA*eG*eG*eT) [compound 22783]”, in the series with bcl-xs mRNA, the “% CONTROL bcl-xs” value is listed as 620%. Moreover, in the series with bcl-xl mRNA, the “% CONTROL bcl-xl” value came to 35%. The “% CONTROL bcl-xl” value with bcl-xl mRNA (200 nM) is recorded as 39%. Besides, the “% CONTROL total bcl-x” value with total bcl-x mRNA came out at 120%. In the series on bcl-xs/bcl-xl mRNA ratio, the “bcl-xs/bcl-xl Fold difference” value is 18 fold, the “bcl-xs/bcl-xl (%)” value amounted to 293.10% and the “bcl-xs/bcl-xl* (change from the control ratio 17.56)” value was 16.69.
Turning to “23172 (antisense eG*eT*eT*e[5mC]*e[5mC]*eT*eG*eG*e[5mC]*e[5mC]*e[5mC]*eT*eT*eT*e[5mC]*eG*eG*e[5mC]*eT*e[5mC]) [compound 23172]”, the “% CONTROL bcl-xs” value in the series on bcl-xs mRNA worked out at 84%. In addition, in the series with bcl-xl mRNA, the “% CONTROL bcl-xl” value was determined as 77%. The “% CONTROL total bcl-x” value in the series with total bcl-x mRNA was 79%. Moreover, in the series on bcl-xs/bcl-xl mRNA ratio, the “bcl-xs/bcl-xl (%)” value is 19.38% and the “bcl-xs/bcl-xl* (change from the control ratio 17.56)” value was 1.10.
For “106251 (antisense AGGTGGTCATTCAGGTAAGT; all 2'-MOE, all phosphorothioate, methylation of C not given here) [compound 106251]”, in the series with bcl-xl mRNA (200 nM), the “% CONTROL bcl-xl” value was 57%. Moreover, the “bcl-xs/bcl-xl Fold difference” value in the series on bcl-xs/bcl-xl mRNA ratio turned out to be 25 fold.
On the same counts, the results for “106257 (antisense AGGTAAGTGGCCATCCAAGC; all 2'-MOE, all phosphorothioate, methylation of C not given here) [compound 106257]” are 78% and 13 fold.
On the same counts, the results for “106255 (antisense ATTCAGGTAAGTGGCCATCC; all 2'-MOE, all phosphorothioate, methylation of C not given here) [compound 106255]” are 64% and 17 fold.
The matching figures for “106256 (antisense TCAGGTAAGTGGCCATCCAA; all 2'-MOE, all phosphorothioate, methylation of C not given here) [compound 106256]”: 82% and 15 fold.
As for “22784 (antisense e[5mC]*e[5mC]*eA*eG*e[5mC]*e[5mC]*eG*e[5mC]*e[5mC]*eG*eT*eT*e[5mC]*eT*e[5mC]*e[5mC]*eT*eG*eG*eA) [compound 22784]”, in the series on bcl-xs mRNA, the “% CONTROL bcl-xs” value is given as 204%. In the series on bcl-xl mRNA, the “% CONTROL bcl-xl” value is given as 72%. Also, in the series on total bcl-x mRNA, the “% CONTROL total bcl-x” value worked out at 92%. Moreover, in the series with bcl-xs/bcl-xl mRNA ratio, the “bcl-xs/bcl-xl (%)” value came to 48.63% and the “bcl-xs/bcl-xl* (change from the control ratio 17.56)” value turned out to be 2.77.
The matching figures for “23175 (antisense eT*eG*eT*eA*eG*e[5mC]*e[5mC]*e[5mC]*eA*eG*e[5mC]*eA*eG*eA*eA*e[5mC]*e[5mC]*eA*e[5mC]*eG) [compound 23175]”: 52%, 82%, 78%, 11.44% and 0.65.
On the same counts, the results for “16968 (antisense e[5mC]*eT*e[5mC]*e[5mC]*eG*dA*dT*dG*dT*dC*dC*dC*dC*dT*dC*eA*eA*eA*eG*eT) [compound 16968]” are 20%, 15%, 21%, 20.18% and 1.15.
